Assay results reported in ChEMBL document CHEMBL3885881, “DrugMatrix”.

Species on record: Rattus norvegicus
Assay: DrugMatrix - Regimen: Daily Repeat
Format: toxicity, organism-based, Sprague-Dawley
Parameters: regimen Daily Repeat, gender Male, age 6-8 weeks
Settings: in vivo, po, route oral GAVAGE, vehicle 100 % WATER; for BASOPHIL / EOSINOPHIL / ERYTHROCYTE COUNT / HEMATOCRIT / HEMOGLOBIN / LEUKOCYTE COUNT / LYMPHOCYTE / MEAN CORPUSCULAR HEMOGLOBIN / MEAN CORPUSCULAR HEMOGLOBIN CONCENTRATION / MONOCYTE / NEUTROPHIL / PLATELET COUNT: tissue Blood; for ALANINE AMINOTRANSFERASE / ALBUMIN / ALKALINE PHOSPHATASE / ASPARTATE AMINOTRANSFERASE / BLOOD UREA NITROGEN / CHLORIDE / CHOLESTEROL / CREATINE PHOSPHOKINASE / CREATININE / GLUCOSE / PHOSPHORUS / POTASSIUM / SODIUM / TOTAL BILIRUBIN / TOTAL PROTEIN: tissue Plasma
[1] = 0 mg/kg, 72 h, dose level Control, time 3 day
[2] = 0 mg/kg, 120 h, dose level Control, time 5 day
[3] = 755 mg/kg, 72 h, dose level High, time 3 day
[4] = 755 mg/kg, 120 h, dose level High, time 5 day

## CCN(CC)CCNC(=O)c1ccc(N)cc1 [PROCAINAMIDE]
[1]
  BASOPHIL: 0%
  EOSINOPHIL: 0.33%
  ERYTHROCYTE COUNT: 5.88 x10E6/uL
  HEMATOCRIT: 36.47%
  HEMOGLOBIN: 14.2 G/DL
  LEUKOCYTE COUNT: 9.28 x10E3/uL
  LYMPHOCYTE: 82.33%
  MEAN CORPUSCULAR HEMOGLOBIN: 24.2 pg
  MEAN CORPUSCULAR HEMOGLOBIN CONCENTRATION: 38.97 G/DL
  MONOCYTE: 2.33%
  NEUTROPHIL: 15%
  PLATELET COUNT: 1114 x10E3/uL
  ALANINE AMINOTRANSFERASE: 41.17 u/L
  ALBUMIN: 3.95 G/DL
  ALKALINE PHOSPHATASE: 382.5 u/L
  ASPARTATE AMINOTRANSFERASE: 67.33 u/L
  BLOOD UREA NITROGEN: 15.5 mg/dL
  CHLORIDE: 106.33 MEQ/L
  CHOLESTEROL: 77.67 mg/dL
  CREATINE PHOSPHOKINASE: 123.33 u/L
  CREATININE: 0.62 mg/dL
  GLUCOSE: 185.67 mg/dL
  PHOSPHORUS: 10.2 mg/dL
  POTASSIUM: 6.72 MEQ/L
  SODIUM: 149.67 MEQ/L
  TOTAL BILIRUBIN: 0.97 mg/dL
  TOTAL PROTEIN: 6.58 G/DL
[2]
  BASOPHIL: 0%
  EOSINOPHIL: 0%
  ERYTHROCYTE COUNT: 5.99 x10E6/uL
  HEMATOCRIT: 36.88%
  HEMOGLOBIN: 14.77 G/DL
  LEUKOCYTE COUNT: 11.35 x10E3/uL
  LYMPHOCYTE: 85.5%
  MEAN CORPUSCULAR HEMOGLOBIN: 24.7 pg
  MEAN CORPUSCULAR HEMOGLOBIN CONCENTRATION: 40.07 G/DL
  MONOCYTE: 1.83%
  NEUTROPHIL: 12.67%
  PLATELET COUNT: 979.67 x10E3/uL
  ALANINE AMINOTRANSFERASE: 36.5 u/L
  ALBUMIN: 3.63 G/DL
  ALKALINE PHOSPHATASE: 303.5 u/L
  ASPARTATE AMINOTRANSFERASE: 61 u/L
  BLOOD UREA NITROGEN: 16.5 mg/dL
  CHLORIDE: 106.17 MEQ/L
  CREATINE PHOSPHOKINASE: 154.83 u/L
  CREATININE: 0.6 mg/dL
  GLUCOSE: 201 mg/dL
  PHOSPHORUS: 10.1 mg/dL
  POTASSIUM: 6.85 MEQ/L
  SODIUM: 148.17 MEQ/L
  TOTAL BILIRUBIN: 0.58 mg/dL
  TOTAL PROTEIN: 5.9 G/DL
[3]
  BASOPHIL: 0%
  EOSINOPHIL: 0%
  ERYTHROCYTE COUNT: 5.39 x10E6/uL
  HEMATOCRIT: 32.67%
  HEMOGLOBIN: 13.03 G/DL
  LEUKOCYTE COUNT: 10.2 x10E3/uL
  LYMPHOCYTE: 85.67%
  MEAN CORPUSCULAR HEMOGLOBIN: 24.17 pg
  MEAN CORPUSCULAR HEMOGLOBIN CONCENTRATION: 39.9 G/DL
  MONOCYTE: 1.33%
  NEUTROPHIL: 13%
  PLATELET COUNT: 1063.33 x10E3/uL
  ALANINE AMINOTRANSFERASE: 43 u/L
  ALBUMIN: 3.9 G/DL
  ALKALINE PHOSPHATASE: 441.33 u/L
  ASPARTATE AMINOTRANSFERASE: 61 u/L
  BLOOD UREA NITROGEN: 16 mg/dL
  CHLORIDE: 105.33 MEQ/L
  CHOLESTEROL: 74.33 mg/dL
  CREATINE PHOSPHOKINASE: 142.67 u/L
  CREATININE: 0.57 mg/dL
  GLUCOSE: 176.33 mg/dL
  PHOSPHORUS: 11.97 mg/dL
  POTASSIUM: 6.97 MEQ/L
  SODIUM: 150.67 MEQ/L
  TOTAL BILIRUBIN: 0.6 mg/dL
  TOTAL PROTEIN: 6.5 G/DL
[4]
  BASOPHIL: 0%
  EOSINOPHIL: 0%
  ERYTHROCYTE COUNT: 5.45 x10E6/uL
  HEMATOCRIT: 33.47%
  HEMOGLOBIN: 14.6 G/DL
  LEUKOCYTE COUNT: 13.8 x10E3/uL
  LYMPHOCYTE: 87.67%
  MEAN CORPUSCULAR HEMOGLOBIN: 26.87 pg
  MEAN CORPUSCULAR HEMOGLOBIN CONCENTRATION: 43.7 G/DL
  MONOCYTE: 1.33%
  NEUTROPHIL: 11%
  PLATELET COUNT: 830.33 x10E3/uL
  ALANINE AMINOTRANSFERASE: 40.67 u/L
  ALBUMIN: 3.73 G/DL
  ALKALINE PHOSPHATASE: 378.67 u/L
  ASPARTATE AMINOTRANSFERASE: 63 u/L
  BLOOD UREA NITROGEN: 14.33 mg/dL
  CHLORIDE: 107.33 MEQ/L
  CHOLESTEROL: 74 mg/dL
  CREATINE PHOSPHOKINASE: 117.33 u/L
  CREATININE: 0.67 mg/dL
  GLUCOSE: 180 mg/dL
  PHOSPHORUS: 10.5 mg/dL
  POTASSIUM: 6.57 MEQ/L
  SODIUM: 152.33 MEQ/L
  TOTAL BILIRUBIN: 0.53 mg/dL
  TOTAL PROTEIN: 6.03 G/DL
